Results reported in patent publication US11000033B2, “Ketone or oxime compound, and herbicide” (NISSAN CHEMICAL CORPORATION, priority 2014, dated 2021).

Tests used:
Assay type in all cases: in vivo
[1] = test system: Echinochloa oryzacola Vasing.; assay: Test Example 1: herbicidal activity, application before weed generation in submerged conditions (symbol A); conditions: application herbicide amount 320 g/ha
Summary of the method: (§1)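 Application before weed emergence: an aqueous dilution of the emulsion formulation was poured onto the surface of 4 cm-deep floodwater on the day of sowing. Effect was judged after 3 weeks (greenhouse, 25–30 °C).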

Scirpus juncoides = assay: Test Example 1: herbicidal activity, application before weed generation in submerged conditions (symbol B); conditions: application herbicide amount 320 g/ha
Summary of the method: as §1

transplanted rice plant = assay: Test Example 1: effect on crop, application before weed generation in submerged conditions (symbol a); conditions: application herbicide amount 320 g/ha
Summary of the method: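 Rice at 2.5 leaf stage transplanted into submerged soil (4 cm depth) sown with three weed species; herbicide applied before weed emergence.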

Cyperus difformis = assay: Test Example 3: herbicidal effect by foliage application, Wagner pot (symbol E); conditions: application herbicide amount 320 g/ha
Summary of the method: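 In a shallow-flooded alluvial soil system held at 25–30 °C, plants including rice grew for 14 days and were then sprayed over the foliage with emulsion diluted to a fixed herbicide amount. Visual rating followed at 3 weeks.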

Alopecurus myosuroides [2] = assay: Test Example 4: herbicidal effect by soil treatment (symbol J); conditions: application herbicide amount 320 g/ha
Summary of the method: (§2)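 Seeds were sown in sterilized diluvial soil, covered with about 1.5 cm of soil, and the soil surface was sprayed with a water-diluted emulsion of the compound at a predetermined rate. Plants grew in a greenhouse at 25° C. to 30° C.; effects were scored visually 3 weeks after application.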

corn = assay: Test Example 4: effect on crop by soil treatment (symbol c); conditions: application herbicide amount 320 g/ha
Summary of the method: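 Sterilized diluvial soil, spot sowing, ~1.5 cm soil cover; greenhouse 25–30° C.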

soybean = assay: Test Example 4: effect on crop by soil treatment (symbol d); conditions: application herbicide amount 320 g/ha
Summary of the method: (§3)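 Plants are raised in a greenhouse (25° C. to 30° C.) from spot-sown seed, which sits under about 1.5 cm of sterilized diluvial soil in a box shared with weed species.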

rice = assay: Test Example 4: effect on crop by soil treatment (symbol b); conditions: application herbicide amount 320 g/ha
Summary of the method: as §3

wheat = assay: Test Example 4: effect on crop by soil treatment (symbol e); conditions: application herbicide amount 320 g/ha
Summary of the method: as §3

Setaria viridis = assay: Test Example 5: herbicidal effect by foliage application, plastic box (symbol G); conditions: 320 g/ha, 3 weeks after application
Summary of the method: (§4)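 Post-emergence spray; diluvial soil (sterilized), ~1.5 cm seed cover; greenhouse 25–30° C; 14-day-old plants; water-diluted emulsion at predetermined dose; visual score at 3 wk post-treatment.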

Alopecurus myosuroides [3] = assay: Test Example 5: herbicidal effect by foliage application, plastic box (symbol J); conditions: 320 g/ha, 3 weeks after application
Summary of the method: as §4

Lolium multiflorum Lam. = assay: Test Example 5: herbicidal effect by foliage application, plastic box (symbol K); conditions: 320 g/ha, 3 weeks after application
Summary of the method: as §4

Galium spurium = assay: Test Example 5: herbicidal effect by foliage application, plastic box (symbol Q); conditions: 320 g/ha, 3 weeks after application
Summary of the method: as §4

Stellaria media = assay: Test Example 4: herbicidal effect by soil treatment (symbol P); conditions: application herbicide amount 320 g/ha
Summary of the method: as §2

SMILES | Herbicidal effect grade, A: Echinochloa oryzacola Vasing. [1] | Herbicidal effect grade, B: Scirpus juncoides (Scirpus juncoides) | Effect grade on crop, a: transplanted rice plant (transplanted rice plant) | herbicidal effect on E, grade 0-5 (Cyperus difformis) | J: Alopecurus myosuroides, herbicidal effect grade (Alopecurus myosuroides [2]) | c: corn, effect on crop grade (corn) | d: soybean, effect on crop grade (soybean) | b: directly sowed rice plant, effect on crop grade (rice) | e: wheat, effect on crop grade (wheat) | G: Setaria viridis, herbicidal effect grade (Setaria viridis) | J: Alopecurus myosuroides, herbicidal effect grade (Alopecurus myosuroides [3]) | K: Lolium multiflorum Lam., herbicidal effect grade (Lolium multiflorum Lam.) | Q: Galium spurium, herbicidal effect grade (Galium spurium) | P: Stellaria media, herbicidal effect grade (Stellaria media) | J (Alopecurus myosuroides) herbicidal effect grade (Alopecurus myosuroides [2]) | c (corn) effect on crop grade (corn) | d (soybean) effect on crop grade (soybean) | b (directly sowed rice plant) effect on crop grade (rice) | e (wheat) effect on crop grade (wheat) | P (Stellaria media) herbicidal effect grade (Stellaria media)
CON=C(C)CC1CC(O)=C(c2c(C)cc(-c3ccc(Cl)cc3)cc2C)C1=O (mixture of isomers) [6-029] | 5 (Herbicidal ratio of 90% or more (almost completely withered)) | 3 (Herbicidal ratio of 40% or higher and lower than 70%) | 5 (Herbicidal ratio of 90% or more (almost completely withered)) | 5 (Herbicidal ratio of 90% or more (almost completely withered)) | 5 (Herbicidal ratio of 90% or more (almost completely withered)) | 2 (Herbicidal ratio of 20% or higher and lower than 40%) | 0 (Herbicidal ratio of 5% or lower (almost no effect)) | 5 (Herbicidal ratio of 90% or more (almost completely withered)) | 4 (Herbicidal ratio of 70% or higher and lower than 90%) | 5 (Herbicidal ratio of 90% or more (almost completely withered)) | 5 (Herbicidal ratio of 90% or more (almost completely withered)) | 5 (Herbicidal ratio of 90% or more (almost completely withered)) | 5 (Herbicidal ratio of 90% or more (almost completely withered)) |  |  |  |  |  |  | 
C=Cc1cc(C)c(C2=C(O)CC(CC(C)=NOC)C2=O)c(C)c1 (mixture of isomers) [6-031] | 3 (Herbicidal ratio of 40% or higher and lower than 70%) | 0 (Herbicidal ratio of 5% or lower (almost no effect)) | 1 (Herbicidal ratio of 5% or higher and lower than 20%) | 2 (Herbicidal ratio of 20% or higher and lower than 40%) | 0 (Herbicidal ratio of 5% or lower (almost no effect)) | 0 (Herbicidal ratio of 5% or lower (almost no effect)) | 0 (Herbicidal ratio of 5% or lower (almost no effect)) | 0 (Herbicidal ratio of 5% or lower (almost no effect)) | 0 (Herbicidal ratio of 5% or lower (almost no effect)) | 5 (Herbicidal ratio of 90% or more (almost completely withered)) | 5 (Herbicidal ratio of 90% or more (almost completely withered)) | 5 (Herbicidal ratio of 90% or more (almost completely withered)) |  | 0 (Herbicidal ratio of 5% or lower (almost no effect)) |  |  |  |  |  | 
CON=C(C)CC1CC(OCCSC)=C(c2c(C)cc(C)cc2C)C1=O (stereo not shown) [1-011] | 0 (Herbicidal ratio of 5% or lower (almost no effect)) | 0 (Herbicidal ratio of 5% or lower (almost no effect)) | 0 (Herbicidal ratio of 5% or lower (almost no effect)) | 0 (Herbicidal ratio of 5% or lower (almost no effect)) |  |  |  |  |  | 0 (Herbicidal ratio of 5% or lower (almost no effect)) | 4 (Herbicidal ratio of 70% or higher and lower than 90%) | 5 (Herbicidal ratio of 90% or more (almost completely withered)) |  |  | 0 (Herbicidal ratio of 5% or lower (almost no effect)) | 0 (Herbicidal ratio of 5% or lower (almost no effect)) | 0 (Herbicidal ratio of 5% or lower (almost no effect)) | 0 (Herbicidal ratio of 5% or lower (almost no effect)) | 0 (Herbicidal ratio of 5% or lower (almost no effect)) | 
CON=C(C)CC1CC(OCC#N)=C(c2c(C)cc(C)cc2C)C1=O (stereo not shown) [1-013] | 0 (Herbicidal ratio of 5% or lower (almost no effect)) | 0 (Herbicidal ratio of 5% or lower (almost no effect)) | 0 (Herbicidal ratio of 5% or lower (almost no effect)) | 0 (Herbicidal ratio of 5% or lower (almost no effect)) |  |  |  |  |  | 0 (Herbicidal ratio of 5% or lower (almost no effect)) | 4 (Herbicidal ratio of 70% or higher and lower than 90%) | 5 (Herbicidal ratio of 90% or more (almost completely withered)) |  |  | 0 (Herbicidal ratio of 5% or lower (almost no effect)) | 0 (Herbicidal ratio of 5% or lower (almost no effect)) | 0 (Herbicidal ratio of 5% or lower (almost no effect)) | 0 (Herbicidal ratio of 5% or lower (almost no effect)) | 0 (Herbicidal ratio of 5% or lower (almost no effect)) | 0 (Herbicidal ratio of 5% or lower (almost no effect))
CCCC(=O)C(C(=O)OC)C1CC(O)=C(c2c(C)cc(C)cc2C)C1=O (stereo not shown) [2-020] | 2 (Herbicidal ratio of 20% or higher and lower than 40%) | 0 (Herbicidal ratio of 5% or lower (almost no effect)) | 3 (Herbicidal ratio of 40% or higher and lower than 70%) | 0 (Herbicidal ratio of 5% or lower (almost no effect)) | 0 (Herbicidal ratio of 5% or lower (almost no effect)) | 3 (Herbicidal ratio of 40% or higher and lower than 70%) | 0 (Herbicidal ratio of 5% or lower (almost no effect)) | 5 (Herbicidal ratio of 90% or more (almost completely withered)) | 0 (Herbicidal ratio of 5% or lower (almost no effect)) | 5 (Herbicidal ratio of 90% or more (almost completely withered)) | 4 (Herbicidal ratio of 70% or higher and lower than 90%) | 5 (Herbicidal ratio of 90% or more (almost completely withered)) |  |  |  |  |  |  |  | 
Cc1cc(C)c(C2=C(O)CC(CC(=O)C(C)(C)C)C2=O)c(C)c1 (stereo not shown) [2-022] | 1 (Herbicidal ratio of 5% or higher and lower than 20%) | 0 (Herbicidal ratio of 5% or lower (almost no effect)) | 3 (Herbicidal ratio of 40% or higher and lower than 70%) | 2 (Herbicidal ratio of 20% or higher and lower than 40%) | 0 (Herbicidal ratio of 5% or lower (almost no effect)) | 0 (Herbicidal ratio of 5% or lower (almost no effect)) | 0 (Herbicidal ratio of 5% or lower (almost no effect)) | 4 (Herbicidal ratio of 70% or higher and lower than 90%) | 0 (Herbicidal ratio of 5% or lower (almost no effect)) | 0 (Herbicidal ratio of 5% or lower (almost no effect)) | 3 (Herbicidal ratio of 40% or higher and lower than 70%) | 5 (Herbicidal ratio of 90% or more (almost completely withered)) |  | 0 (Herbicidal ratio of 5% or lower (almost no effect)) |  |  |  |  |  | 
